Where two headings read alike, the source gives them in different places.
Key:
Salmonella typhimurium = test: Control of infections caused by Salmonella typhimurium in chickens, subcutaneous (Experiment 2); type: in vivo; details: Salmonella enterica, sc, 144 h, 6 days, read-out: Survival Ratio (converted); for responders at 7.5 mg/kg: 7.5 mg./kg. subcutaneous; for responders at 15 mg/kg: 15 mg./kg. subcutaneous; for responders at 30 mg/kg: 30 mg./kg. subcutaneous; for responders at 60 mg/kg: 60 mg./kg. subcutaneous
Experimental: The efficacy of the novel compounds in the control of infections caused by Salmonella typhimurium in chickens was evaluated in the following manner.
The test was carried out using day-old chicks weighing approximately 35 g. each. The chicks were divided into groups of 5 chicks per each dosage level. A portion of the chicks received the test compound which was suspended in 0.2 ml. of polyethylene glycol 200 and administered subcutanusly in the neck. […] All the chicks were challenged with a 1:200 dilution of a culture of the organism, 0.1 ml. of the dilution being injected into each chick in the leg intramuscularly. […] The test compounds are identified in the same manner as set forth in Experiment 1.
In the chart, column 1 lists the compounds tested; column 2, the dosage of test compound in mg./kg.; and column 3, the survival ratio.

Pasteurella multocida = test: Efficacy against Pasteurella multocida infections in mice when administered by injection (Experiment 1); type: in vivo, Swiss mice; details: ip; for responders at 2.5 mg/kg: 2.5 mg./kg. i.p.; for responders at 5 mg/kg: 5.0 mg./kg. i.p.; for responders at 7.5 mg/kg: 7.5 mg./kg. i.p.
Experimental: The efficacy of the novel compounds against Pasteurella multocida infections in mice when administered by injection was studied.
Female Swiss mice weighing from 15 to about 20 g. were used. The test compound, 5.0 mg., was weighed out and dissolved in 0.5 ml. of dimethyl sulfoxide, and this solution was added to 9.5 ml. of sodium carboxymethylcellulose suspension. Groups of five mice each were injected intraperitoneally with 0.1 ml. each of the above-prepared test composition. This preparation gave a test rate of 2.5 mg. per kilo of body weight of mouse. The compounds were tested at 2.5, 5.0, or 7.5 mg. per kilo of body weight of mouse, and the test preparations for rates of 5.0 and 7.5 mg./kg. were prepared in a similar manner. Immediately after receiving the test compound, the mice were challenged using log10 dilutions of 10^-^4, 10^-^5, 10^-^6, and 10^-^7 of a 16 to 20-hour tryptose broth culture of Pasteurella multocida at 0.1 ml. per mouse subcutaneously. Similar groups of nontreated control mice were also challenged, the challenge being administered subcutaneously. The groups of mice were observed daily for mortality and the total mortality in treated groups compared with that which occurred in the nonmedicated control groups. Each test compound is identified by the number of the example describing its preparation.
In the chart, column 1 lists the test compound; column 2, the dosage of test compound in mg./kg. of mouse body weight; column 3, the dilution of the challenge organism; and column 4, the ratio of the number of mice surviving the test at each dosage and challenge dilution to the number of mice tested at each dosage and challenge dilution, called the survival ratio.

[1] = challenge dilution 10^-^4, read-out: Survival Ratio (converted)
[2] = challenge dilution 10^-^5, read-out: Survival Ratio (converted)
[3] = challenge dilution 10^-^6, read-out: Survival Ratio (converted)

## CCOC(C)=Nc1c(C#N)c(-c2ncc([N+](=O)[O-])n2C)nn1C [Compound 13, Ethyl N-[4-cyano-1-methyl-3-(1-methyl-5-nitro-2-imidazolyl)pyrazol-5-yl]acetimidate]
Salmonella typhimurium
  responders at 7.5 mg/kg: 53.3%
  responders at 15 mg/kg: 40%
  responders at 30 mg/kg: 55%
  responders at 60 mg/kg: 65%

## CC(C)COC=Nc1c(C#N)c(-c2ncc([N+](=O)[O-])n2C)nn1C [Compound 13C, Isobutyl N-[4-cyano-1-methyl-3-(1-methyl-5-nitro-2-imidazolyl)pyrazol-5-yl]formimidate]
Pasteurella multocida; [1]
  responders at 2.5 mg/kg: 40%
  responders at 5 mg/kg: 40%
Pasteurella multocida; [2]
  responders at 2.5 mg/kg: 30%
  responders at 5 mg/kg: 80%
Pasteurella multocida; [3]
  responders at 2.5 mg/kg: 70%
  responders at 5 mg/kg: 90%
Pasteurella multocida; challenge dilution 10^-^4, read-out: Survival Ratio
  responders at 7.5 mg/kg: 80%
Pasteurella multocida; challenge dilution 10^-^5, read-out: Survival Ratio
  responders at 7.5 mg/kg: 100%
Pasteurella multocida; challenge dilution 10^-^6, read-out: Survival Ratio
  responders at 7.5 mg/kg: 100%
Salmonella typhimurium
  responders at 7.5 mg/kg: 0%
  responders at 15 mg/kg: 46.7%
  responders at 30 mg/kg: 53.3%
  responders at 60 mg/kg: 66.7%

## Cn1nc(-c2ncc([N+](=O)[O-])n2C)c(C#N)c1N=COCCCl [Compound 13B, 2-Chloroethyl N-[4-cyano-1-methyl-3-(1-methyl-5-nitro-2-imidazolyl)pyrazol-5-yl]formimidate]
Pasteurella multocida; [1]
  responders at 5 mg/kg: 90%
Pasteurella multocida; [2]
  responders at 5 mg/kg: 70%
Pasteurella multocida; [3]
  responders at 5 mg/kg: 80%
Salmonella typhimurium
  responders at 7.5 mg/kg: 10%
  responders at 15 mg/kg: 65%
  responders at 30 mg/kg: 50%
  responders at 60 mg/kg: 70%

## CC(=O)N(C(C)=O)c1c(C#N)c(-c2ncc([N+](=O)[O-])n2C)nn1C [Compound 5, N-[4-Cyano-1-methyl-3-(1-methyl-5-nitro-2-imidazolyl)pyrazol-5-yl]diacetamide]
Pasteurella multocida; [1]
  responders at 2.5 mg/kg: 100%
Pasteurella multocida; [2]
  responders at 2.5 mg/kg: 90%
Pasteurella multocida; [3]
  responders at 2.5 mg/kg: 100%
Salmonella typhimurium
  responders at 7.5 mg/kg: 0%
  responders at 15 mg/kg: 0%
  responders at 30 mg/kg: 40%
  responders at 60 mg/kg: 45%

— patent US3980794A, “Method for promoting growth of poultry with 3-(5-nitro-2-imidazolyl)pyrazoles” (Eli Lilly and Company, priority 1975, dated 1976)
